Test results reported in ChEMBL document CHEMBL3997795, “Conjugates of 2,4-Dihydroxybenzoate and Salicylhydroxamate and Lipocations Display Potent Antiparasite Effects by Efficiently Targeting the Trypanosoma brucei and Trypanosoma congolense Mitochondrion” (J Med Chem, 2017).
Active and inactive are the calls of the source. The rule behind the calls is not given here.

What was measured:
Trypanosoma congolense = experiment: Anti-parasitic activity against bloodstream form of Trypanosoma congolense IL3000 after 48 hrs by alamar blue based fluorescence assay; format: functional; settings: IL3000, 48 h
[1] = test system: Trypanosoma brucei brucei; experiment: Anti-parasitic activity against diminazene, pentamidine and melaminophenyl arsenical-resistant bloodstream trypomastigote stage of Trypanosoma brucei brucei B48 harboring TbAT1 deletion mutant after 48 hrs by alamar blue based fluorescence assay; format: functional; settings: B48, 48 h
[2] = test system: Trypanosoma brucei brucei; experiment: Anti-parasitic activity against bloodstream trypomastigote stage of wild-type Trypanosoma brucei brucei Lister 427 after 48 hrs by alamar blue based fluorescence assay; format: functional; settings: Lister 427, 48 h
[3] = Cytotoxicity against HEK cells up to 50 uM after 30 hrs by resazurin based fluorimetric assay; format: cell-based; settings: human
[4] = Cytostatic activity against HEK293T cells after 30 hrs by resazurin based fluorimetric assay; format: cell-based, HEK-293T; settings: human
[5] = Resistance factor, ratio of EC50 for diminazene, pentamidine and melaminophenyl arsenical-resistant bloodstream trypomastigote stage of Trypanosoma brucei brucei B48 harboring TbAT1 deletion mutant to EC50 for bloodstream trypomastigote stage of wild-type Trypanosoma brucei brucei Lister 427; format: functional
[6] = Selectivity index, ratio of CC50 for HEK293T cells to EC50 for bloodstream trypomastigote stage of wild-type Trypanosoma brucei brucei Lister 427; format: toxicity; settings: human, read-out: Ratio CC50/EC50
[7] = test system: Trypanosoma brucei brucei; experiment: Anti-parasitic activity against bloodstream trypomastigote stage of Trypanosoma brucei brucei Lister 427 over-expressing TAO relative to bloodstream trypomastigote stage of wild-type Trypanosoma brucei brucei Lister 427; format: functional
[8] = test system: Trypanosoma brucei brucei; experiment: Trypanocidal activity against bloodstream trypomastigote stage of wild-type Trypanosoma brucei brucei Lister 427 assessed as inhibition of respiration in presence of glycerol; format: functional
[9] = test system: Trypanosoma brucei brucei; experiment: Induction of plasma membrane disruption in bloodstream trypomastigote stage of wild-type Trypanosoma brucei brucei Lister 427 assessed as increase in propidium iodide influx after 6 hrs by fluorimetric assay; format: functional
[10] = test system: Trypanosoma brucei brucei; experiment: Cell cycle arrest in bloodstream trypomastigote stage of wild-type Trypanosoma brucei brucei Lister 427 assessed as accumulation at G2 phase at 0.005 uM after 24 hrs by propidium iodide staining-based flow cytometry; format: functional
[11] = test system: Trypanosoma brucei brucei; experiment: Cell cycle arrest in bloodstream trypomastigote stage of wild-type Trypanosoma brucei brucei Lister 427 assessed as accumulation at S phase at 0.005 uM after 24 hrs by propidium iodide staining-based flow cytometry; format: functional
[12] = Selectivity index, ratio of CC50 for HFF cells to EC50 for bloodstream trypomastigote stage of wild-type Trypanosoma brucei brucei Lister 427; format: toxicity; settings: human, read-out: Ratio CC50/EC50
[13] = Cytotoxicity against HFF cells after 30 hrs by resazurin based fluorimetric assay; format: cell-based; settings: human
[14] = test system: Trypanosoma brucei brucei; experiment: Trypanocidal activity against bloodstream trypomastigote stage of wild-type Trypanosoma brucei brucei Lister 427 at 3 times EC50 after 4 hrs by propidium iodide staining based fluorimetric assay; format: functional
[15] = test system: Trypanosoma brucei brucei; experiment: Resistant factor, ratio of EC50 for bloodstream trypomastigote stage of wild-type Trypanosoma brucei brucei Lister 427 assessed as inhibition of respiration in presence of glycerol to EC50 for bloodstream trypomastigote stage of wild-type Trypanosoma brucei brucei Lister 427 assessed as inhibition of respiration in absence of glycerol; format: functional
[16] = test system: Trypanosoma brucei brucei; experiment: Induction of mitochondrial membrane depolarization in bloodstream trypomastigote stage of wild-type Trypanosoma brucei brucei Lister 427 at 0.005 uM after 10 mins by TMRE dye based flow cytometry; format: functional
[17] = test system: Trypanosoma brucei brucei; experiment: Reduction in oxygen consumption in bloodstream trypomastigote stage of wild-type Trypanosoma brucei brucei Lister 427 measured immediately for 120 mins by fluorescent oxygen reporter probe based fluorimetric assay; format: functional
[18] = Inhibition of recombinant MTS-deficient N-terminal His6-tagged and SUMO-tagged Trypanosoma alternative oxidase expressed in Escherichia coli FN102 using ubiquinol-1 as substrate
[19] = test system: Trypanosoma brucei brucei; experiment: Cell cycle arrest in bloodstream trypomastigote stage of wild-type Trypanosoma brucei brucei Lister 427 assessed as accumulation at G1 phase at 0.005 uM after 24 hrs by propidium iodide staining-based flow cytometry; format: functional
[20] = Selectivity index, ratio of CC50 for HFF cells to EC50 for bloodstream form of Trypanosoma congolense IL3000; format: toxicity; settings: human, read-out: Ratio CC50/EC50
[21] = Selectivity index, ratio of CC50 for HEK293T cells to EC50 for bloodstream form of Trypanosoma congolense IL3000; format: toxicity; settings: human, read-out: Ratio CC50/EC50
[22] = test system: Trypanosoma brucei brucei; experiment: Reduction in oxygen consumption in bloodstream trypomastigote stage of wild-type Trypanosoma brucei brucei Lister 427 at 50 uM measured immediately for 120 mins by fluorescent oxygen reporter probe based fluorimetric assay; format: functional
[23] = test system: Trypanosoma brucei brucei; experiment: Trypanocidal activity against bloodstream trypomastigote stage of wild-type Trypanosoma brucei brucei Lister 427 assessed as inhibition of respiration at 10 uM; format: functional
[24] = test system: Trypanosoma brucei brucei; experiment: Trypanocidal activity against bloodstream trypomastigote stage of wild-type Trypanosoma brucei brucei Lister 427 assessed as inhibition of respiration at 10 uM in presence of glycerol; format: functional
[25] = test system: Trypanosoma brucei brucei; experiment: Induction of mitochondrial membrane depolarization in bloodstream trypomastigote stage of wild-type Trypanosoma brucei brucei Lister 427 at 100 nM after 10 mins by TMRE dye based flow cytometry; format: functional
[26] = test system: Trypanosoma brucei brucei; experiment: Induction of mitochondrial membrane hyperpolarization in bloodstream trypomastigote stage of wild-type Trypanosoma brucei brucei Lister 427 at 10 uM after 10 mins by TMRE dye based flow cytometry; format: functional

| Structure (SMILES) | EC50 (Trypanosoma congolense) [nM] | EC50 [1] [nM] | EC50 [2] [nM] | Activity [3] | CC50 at 30 h [4] [µM] | Ratio EC50 [5] | selectivity ratio [6] | EC50 [8] [nM] | Ratio EC50 [15] | selectivity ratio [21] | further results |
| --- | --- | --- | --- | --- | --- | --- | --- | --- | --- | --- | --- |
| O=C(OCCCCCCCCCCCCCCCCBr)c1ccc(O)cc1O | > 100000 | 49000 | 45700 | Non-Toxic | > 400 | 1.07 | > 9 | – | – | – | – |
| O=C(OCCCCCCCCCCCCCC[P+](c1ccccc1)(c1ccccc1)c1ccccc1)c1ccc(O)cc1O.[Br-] | 61 | 1.2 | 1.5 | – | – | 0.78 | – | 0.8 | 0.55 | – | fold change (FC) [7]: 2.6; Activity [9]: Dose-dependent effect; Activity [10]: Active; Activity [11]: Active; selectivity ratio [12]: 23400; CC50 at 30 h [13]: 59.7 µM; Activity [14]: Active; Activity [16]: Active; Activity [17]: Dose-dependent effect; IC50 [18]: 1.46 µM; Activity [19]: Active; selectivity ratio [20]: 982 |
| O=C(OCCCCCCCC[P+](c1ccccc1)(c1ccccc1)c1ccccc1)c1ccc(O)cc1O.[Br-] | 4300 | 68 | 73 | Non-Toxic | 7.73 | 0.94 | 106 | 84 | 1.16 | 1.8 | – |
| O=C(OCCCCCCCCCCCC[P+](c1ccccc1)(c1ccccc1)c1ccccc1)c1ccc(O)cc1O.[Br-] | 42 | 1.2 | 1.2 | Non-Toxic | 1.65 | 0.96 | 1330 | 1.2 | 1.01 | – | – |
| O=C(NO)c1ccccc1O [SALICYLHYDROXAMIC ACID] | – | – | 38700 | – | – | – | – | 7000 | – | – | fold change (FC) [7]: 1.6; Activity [22]: Active; Activity [17]: Dose-dependent effect |
| O=C(OCCCCCCCCCCCCCCCC[n+]1cccc2ccccc21)c1ccc(O)cc1O.[Br-] | 3000 | 140 | 140 | – | – | 1.01 | – | 89 | 0.62 | – | selectivity ratio [12]: 2410; CC50 at 30 h [13]: 345 µM; IC50 [18]: > 5 µM; selectivity ratio [20]: 115 |
| O=C(NO)c1ccc(OCCCCCCCC[P+](c2ccccc2)(c2ccccc2)c2ccccc2)cc1O.[Br-] | 27200 | – | 400 | Non-Toxic | > 400 | – | > 1000 | – | – | > 14.7 | – |
| O=C(OCCCCCCCCCCCCBr)c1ccc(O)cc1O | 52100 | 14900 | 14500 | Non-Toxic | > 400 | 1.03 | > 28 | – | – | > 7.7 | – |
| O=COCCCCCCCCCCOC(=O)c1ccc(O)cc1O | > 100000 | 22100 | 31800 | Non-Toxic | > 400 | 0.69 | > 12 | – | – | – | – |
| BrCCCCCCCCCC[P+](c1ccccc1)(c1ccccc1)c1ccccc1.[Br-] | 950 | 1.2 | 1.8 | Non-Toxic | 6.01 | 0.7 | 3340 | – | – | 6.3 | inhibition [23]: inactive; inhibition [24]: inactive |
| N=C(N)c1ccc(OCCCCCOc2ccc(C(=N)N)cc2)cc1 [PENTAMIDINE] | – | 940 | 2.8 | – | – | 98 | – | 4 | 1.32 | – | – |
| O=C(NO)c1ccc(OCCCCCCCCCC[P+](c2ccccc2)(c2ccccc2)c2ccccc2)cc1O.[Br-] | – | – | 200 | Non-Toxic | > 400 | – | > 2040 | – | – | – | – |
| O=C(OCCCCCCCCCC[P+](c1ccccc1)(c1ccccc1)c1ccccc1)c1ccc(O)cc1O.[Br-] | 180 | 1.1 | 1.3 | Non-Toxic | 2.33 | 0.86 | 1770 | 2 | 1.26 | 13.2 | – |
| N=C(N)c1ccc(/N=N/Nc2ccc(C(=N)N)cc2)cc1 [DIMINAZENE] | 151 | 780 | 65 | – | – | – | – | 63 | 0.97 | – | – |
| CC(C)[C@@H]1NC(=O)[C@H](C)OC(=O)[C@@H](C(C)C)NC(=O)[C@@H](C(C)C)OC(=O)[C@H](C(C)C)NC(=O)[C@H](C)OC(=O)[C@@H](C(C)C)NC(=O)[C@@H](C(C)C)OC(=O)[C@H](C(C)C)NC(=O)[C@H](C)OC(=O)[C@@H](C(C)C)NC(=O)[C@@H](C(C)C)OC1=O | – | – | – | – | – | – | – | – | – | – | Activity [25]: Active |
| O=C(O)c1ccc(O)cc1O [2,4-DIHYDROXYBENZOIC ACID] | – | – | 17100 | – | – | – | – | 19000 | 1.11 | – | IC50 [18]: 116 µM |
| O=C(OCCCCCCCCC[P+](c1ccccc1)(c1ccccc1)c1ccccc1)c1ccc(O)cc1O.[Br-] | 410 | 7.4 | 5.9 | Non-Toxic | 4.68 | 1.24 | 789 | 5 | 0.88 | 11.5 | – |
| Cc1c(C)c2c(c(C)c1O)CCC(C)(COc1ccc(CC3SC(=O)NC3=O)cc1)O2 (stereo not given) | – | – | – | – | – | – | – | – | – | – | Activity [26]: Active |
| O=C(OCCCCCCCCCCCC[n+]1cccc2ccccc21)c1ccc(O)cc1O.[Br-] | 7000 | 347 | 330 | – | – | 1.05 | – | 230 | 0.69 | – | selectivity ratio [12]: 609; CC50 at 30 h [13]: 202 µM; IC50 [18]: > 5 µM; selectivity ratio [20]: 28.7 |
| O=C(OCCCCCCCCCCCCCC[n+]1cccc2ccccc21)c1ccc(O)cc1O.[Br-] | 3800 | 125 | 100 | – | – | 1.21 | – | 78 | 0.75 | – | Activity [9]: Dose-dependent effect; selectivity ratio [12]: 1660; CC50 at 30 h [13]: 172 µM; Activity [14]: Active; IC50 [18]: 1.36 µM; selectivity ratio [20]: 45.3 |
| O=C(NO)c1ccc(OCCCCCCCCCCCC[P+](c2ccccc2)(c2ccccc2)c2ccccc2)cc1O.[Br-] | 46400 | – | 140 | Non-Toxic | > 400 | – | > 2860 | 158 | 1.13 | > 8.6 | – |
| O=C(OCCCCCCCCCCCCCCCC[P+](c1ccccc1)(c1ccccc1)c1ccccc1)c1ccc(O)cc1O.[Br-] | 122 | 8 | 9 | – | – | 0.91 | – | 5 | 0.6 | – | selectivity ratio [12]: 27700; CC50 at 30 h [13]: 249 µM; IC50 [18]: > 5 µM; selectivity ratio [20]: 2040 |
